Data from patent publication US9422292B2, “Bromodomain inhibitors and uses thereof” (Constellation Pharmaceuticals, Inc., priority 2011, dated 2016).

Assays:
BRD4 (BD1) = target: T1, BRD4 (BD1) (Homo sapiens, UniProt O60885); assay: BRD4 AlphaLisa binding assay; conditions: BRD4 (BD1) 30 nM, biotinylated H4-tetraacetyl peptide 200 nM; read-out: BRD4 AlphaLisa
T1 construct: His; made in house
Summary of the method: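 BRD4 (BD1) (30 nM final) with peptide (200 nM final) in 40 mM HEPES pH 7.0, 40 mM NaCl, 1 mM DTT, 0.01% BSA, 0.008% Brij-35, 1.2% DMSO, 20 min at RT with compound.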

[1] = test system: IL-6 secretion in THP-1 cells; assay: Cell-based IL-6 quantification assay (ELISA, Mesoscale) in LPS-treated THP-1 cells; conditions: Homo sapiens, LPS 4 μg/mL, 16 h, ELISA value/CellTiter-Glo ratio
Summary of the method: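 THP-1 cells (100,000/well, RPMI-10% FBS) stimulated with 4 μg/mL LPS and incubated 16 h with compound at various concentrations. Supernatant IL-6 measured by Mesoscale ELISA, normalized to CellTiter-Glo cell content; % inhibition of secretion from the ratio.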

[2] = test system: MYC mRNA in MV4:11 (AML) cells; assay: cMyc RNA quantification assay (QuantiGene) in MV4:11 cells; format: cell-based; conditions: Homo sapiens, 4 h, QuantiGene 2.0
Summary of the method: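 Cells exposed to a range of compound concentrations for 4 h, then MYC mRNA quantified by QuantiGene 2.0 branched-DNA assay. Biological duplicates averaged and normalized to DMSO vehicle, expressed as percent MYC mRNA.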

Structure (SMILES)	IC50 (BRD4 (BD1)) [µM]	IC50 [1] [µM]	IC50 [2] [µM]
Cc1nnc2n1-c1ccc(-c3cnn(CC(N)=O)c3)cc1N(c1ccc(Cl)cc1)C[C@H]2C [Compound 46, 4H-[1,2,4]triazolo[4,3-a][1,5]benzodiazepine,5,6-dihydro-(4R)-1,4-dimethyl-8-(1-(2-amino-2-oxoethyl)-1H-pyrazol-4-yl)-6-(4-chloro-phenyl)]	< 0.1	0.1 to 1	0.1 to 1
COc1ccc2c(n1)N(c1ccc(C#N)cc1)CC(C)c1nnc(C)n1-2 (stereo not drawn) [Compound 84, 4-(8-methoxy-1,4-dimethyl-4H-pyrido[2,3-b][1,2,4]triazolo[4,3-d][1,4]diazepin-6(5H)-yl)benzonitrile]	> 0.5	> 1	1 to 10
Cc1nnc2n1-c1ccc(-c3cnn(C)c3)cc1N(c1ccc(Cl)cc1)C[C@H]2C [Compound 43, (R)-(4H-[1,2,4]triazolo[4,3-a][1,5]benzodiazepine,5,6-dihydro-1,4-dimethyl-8-(1-methyl-1H-pyrazol-4-yl)-6-(4-chloro-phenyl))]	< 0.1	< 0.1	< 0.1
Cc1nnc2n1-c1ccc(-c3ccc(=O)n(C)c3)cc1N(c1ccc(Cl)cc1)C[C@H]2C [Compound 62, (R)-5-(6-(4-chlorophenyl)-1,4-dimethyl-5,6-dihydro-4H-benzo[b][1,2,4]triazolo[4,3-d][1,4]diazepin-8-yl)-1-methylpyridin-2(1H)-one]	< 0.1	< 0.1	< 0.1
Cc1nnc2n1-c1ccc(-c3cnn(C)c3)cc1N(c1ccc(C#N)cn1)C[C@H]2C [Compound 52, (R)-4H-[1,2,4]triazolo[4,3-a][1,5]benzodiazepine,5,6-dihydro-1,4-dimethyl-8-(1-methyl-1H-pyrazol-4-yl)-6-(5-cyanopyridin-2-yl)]	< 0.1	< 0.1	0.1 to 1
Cc1nnc2n1-c1ccc(-c3cnn(C)c3)cc1N(c1ccc(C#N)cc1)C[C@H]2C [Compound 44, (R)-4H-[1,2,4]triazolo[4,3-a][1,5]benzodiazepine, 5,6-dihydro-1,4-dimethyl-8-(1-methyl-1H-pyrazol-4-yl)-6-(4-cyano-phenyl)]	< 0.1	< 0.1	< 0.1
